Among the data in patent US20090298834A1, “4-(AMINOMETHYL)CYCLOHEXANAMINE DERIVATIVES AS CALCIUM CHANNEL BLOCKERS” (priority 2008, published 2009) are IC50 values, retold here.

Assay [1] deals with T1, human α1H T-type channels (Homo sapiens, UniProt O95180).
T1 construct: expressed in transfected cells; host or cells: HEK 293
Kind of assay: T-type calcium channel block, whole cell patch clamp (α1H). The format is cell-based. To be noted: HEK cells stably expressing human α1H; mainly non-inactivated protocol; values above 10 μM represented as 10 μM. The essentials: (§1)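 Whole-cell patch clamp was run on HEK293 cells stably expressing human α1G or α1H. Cells were held at −110 mV and given a 1 s pre-pulse to −100 mV (non-inactivating protocol) before a 50 ms test pulse to −40 mV. Compounds were applied by gravity in external solution with 0.1-0.01% DMSO, and IC50 values are in μM, capped at 10 μM.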

Assay [2] concerns the target T2, human α1G T-type channels (Homo sapiens, UniProt O43497).
T2 construct: expressed in transfected cells; host or cells: HEK 293
Kind of assay: T-type calcium channel block, whole cell patch clamp (α1G). It is filed as cell-based. The note with it: HEK cells stably expressing human α1G; mainly non-inactivated protocol; values above 10 μM represented as 10 μM, values below 0.30 μM represented as 0.30 μM. Put shortly:
as §1

T2 sequence (O43497 whole entry): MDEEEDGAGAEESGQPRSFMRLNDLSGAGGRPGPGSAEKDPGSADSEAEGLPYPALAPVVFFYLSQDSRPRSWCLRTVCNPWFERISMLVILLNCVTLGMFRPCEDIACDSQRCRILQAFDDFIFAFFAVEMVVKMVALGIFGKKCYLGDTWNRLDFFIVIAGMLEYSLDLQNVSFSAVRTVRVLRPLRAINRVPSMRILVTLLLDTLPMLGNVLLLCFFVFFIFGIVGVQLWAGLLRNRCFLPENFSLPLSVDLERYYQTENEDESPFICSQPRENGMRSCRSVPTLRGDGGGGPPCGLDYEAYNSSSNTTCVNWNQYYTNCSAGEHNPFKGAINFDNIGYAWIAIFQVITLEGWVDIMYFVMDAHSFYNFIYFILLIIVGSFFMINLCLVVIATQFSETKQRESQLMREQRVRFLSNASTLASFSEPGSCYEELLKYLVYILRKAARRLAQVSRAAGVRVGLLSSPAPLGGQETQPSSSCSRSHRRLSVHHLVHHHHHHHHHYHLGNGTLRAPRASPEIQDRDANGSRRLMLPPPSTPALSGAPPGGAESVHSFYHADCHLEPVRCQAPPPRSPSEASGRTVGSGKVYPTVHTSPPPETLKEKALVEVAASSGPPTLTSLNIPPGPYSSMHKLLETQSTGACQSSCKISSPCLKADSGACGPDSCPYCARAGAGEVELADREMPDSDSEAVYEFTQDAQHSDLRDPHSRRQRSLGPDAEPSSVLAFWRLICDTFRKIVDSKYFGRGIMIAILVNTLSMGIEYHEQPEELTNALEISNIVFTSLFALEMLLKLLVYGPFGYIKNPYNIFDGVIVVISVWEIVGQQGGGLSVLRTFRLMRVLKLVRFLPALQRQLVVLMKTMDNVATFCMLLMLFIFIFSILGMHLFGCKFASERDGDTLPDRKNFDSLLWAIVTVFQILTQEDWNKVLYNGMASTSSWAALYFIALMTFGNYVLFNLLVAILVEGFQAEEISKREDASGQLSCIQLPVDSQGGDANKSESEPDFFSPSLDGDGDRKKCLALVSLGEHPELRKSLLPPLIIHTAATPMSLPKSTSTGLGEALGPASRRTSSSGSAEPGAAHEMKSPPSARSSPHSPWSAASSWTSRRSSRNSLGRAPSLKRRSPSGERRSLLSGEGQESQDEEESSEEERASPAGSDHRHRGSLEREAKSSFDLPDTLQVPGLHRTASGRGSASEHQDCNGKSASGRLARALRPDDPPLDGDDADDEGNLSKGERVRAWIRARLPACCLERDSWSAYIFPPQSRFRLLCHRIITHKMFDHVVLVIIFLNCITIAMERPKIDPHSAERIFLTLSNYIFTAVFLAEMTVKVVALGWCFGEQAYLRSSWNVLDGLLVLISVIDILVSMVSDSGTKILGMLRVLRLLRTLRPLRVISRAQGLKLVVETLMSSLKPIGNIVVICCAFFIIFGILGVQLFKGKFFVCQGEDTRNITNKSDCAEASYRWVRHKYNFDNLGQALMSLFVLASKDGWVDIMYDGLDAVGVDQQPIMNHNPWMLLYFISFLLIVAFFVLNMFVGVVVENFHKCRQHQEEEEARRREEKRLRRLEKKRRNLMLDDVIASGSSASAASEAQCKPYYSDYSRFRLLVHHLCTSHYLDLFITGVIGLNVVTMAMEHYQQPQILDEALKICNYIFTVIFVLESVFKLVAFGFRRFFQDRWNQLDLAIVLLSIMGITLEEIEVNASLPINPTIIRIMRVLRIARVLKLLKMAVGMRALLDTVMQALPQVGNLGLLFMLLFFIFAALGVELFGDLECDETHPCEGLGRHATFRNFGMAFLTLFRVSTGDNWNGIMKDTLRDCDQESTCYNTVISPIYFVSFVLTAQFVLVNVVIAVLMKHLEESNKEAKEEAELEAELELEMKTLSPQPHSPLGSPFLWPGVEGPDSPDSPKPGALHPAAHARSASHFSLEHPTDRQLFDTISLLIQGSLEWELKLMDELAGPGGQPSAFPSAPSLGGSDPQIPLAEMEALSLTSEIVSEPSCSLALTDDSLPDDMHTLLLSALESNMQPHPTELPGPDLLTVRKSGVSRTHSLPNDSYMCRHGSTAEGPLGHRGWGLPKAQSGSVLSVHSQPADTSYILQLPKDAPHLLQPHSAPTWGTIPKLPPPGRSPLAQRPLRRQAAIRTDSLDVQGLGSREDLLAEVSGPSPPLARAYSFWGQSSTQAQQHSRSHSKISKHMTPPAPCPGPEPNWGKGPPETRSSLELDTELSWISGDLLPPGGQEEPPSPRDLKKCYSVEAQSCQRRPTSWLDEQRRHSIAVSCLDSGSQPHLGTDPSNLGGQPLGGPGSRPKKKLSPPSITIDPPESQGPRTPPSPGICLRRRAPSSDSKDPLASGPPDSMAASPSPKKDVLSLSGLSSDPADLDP
T1 sequence (O95180 whole entry): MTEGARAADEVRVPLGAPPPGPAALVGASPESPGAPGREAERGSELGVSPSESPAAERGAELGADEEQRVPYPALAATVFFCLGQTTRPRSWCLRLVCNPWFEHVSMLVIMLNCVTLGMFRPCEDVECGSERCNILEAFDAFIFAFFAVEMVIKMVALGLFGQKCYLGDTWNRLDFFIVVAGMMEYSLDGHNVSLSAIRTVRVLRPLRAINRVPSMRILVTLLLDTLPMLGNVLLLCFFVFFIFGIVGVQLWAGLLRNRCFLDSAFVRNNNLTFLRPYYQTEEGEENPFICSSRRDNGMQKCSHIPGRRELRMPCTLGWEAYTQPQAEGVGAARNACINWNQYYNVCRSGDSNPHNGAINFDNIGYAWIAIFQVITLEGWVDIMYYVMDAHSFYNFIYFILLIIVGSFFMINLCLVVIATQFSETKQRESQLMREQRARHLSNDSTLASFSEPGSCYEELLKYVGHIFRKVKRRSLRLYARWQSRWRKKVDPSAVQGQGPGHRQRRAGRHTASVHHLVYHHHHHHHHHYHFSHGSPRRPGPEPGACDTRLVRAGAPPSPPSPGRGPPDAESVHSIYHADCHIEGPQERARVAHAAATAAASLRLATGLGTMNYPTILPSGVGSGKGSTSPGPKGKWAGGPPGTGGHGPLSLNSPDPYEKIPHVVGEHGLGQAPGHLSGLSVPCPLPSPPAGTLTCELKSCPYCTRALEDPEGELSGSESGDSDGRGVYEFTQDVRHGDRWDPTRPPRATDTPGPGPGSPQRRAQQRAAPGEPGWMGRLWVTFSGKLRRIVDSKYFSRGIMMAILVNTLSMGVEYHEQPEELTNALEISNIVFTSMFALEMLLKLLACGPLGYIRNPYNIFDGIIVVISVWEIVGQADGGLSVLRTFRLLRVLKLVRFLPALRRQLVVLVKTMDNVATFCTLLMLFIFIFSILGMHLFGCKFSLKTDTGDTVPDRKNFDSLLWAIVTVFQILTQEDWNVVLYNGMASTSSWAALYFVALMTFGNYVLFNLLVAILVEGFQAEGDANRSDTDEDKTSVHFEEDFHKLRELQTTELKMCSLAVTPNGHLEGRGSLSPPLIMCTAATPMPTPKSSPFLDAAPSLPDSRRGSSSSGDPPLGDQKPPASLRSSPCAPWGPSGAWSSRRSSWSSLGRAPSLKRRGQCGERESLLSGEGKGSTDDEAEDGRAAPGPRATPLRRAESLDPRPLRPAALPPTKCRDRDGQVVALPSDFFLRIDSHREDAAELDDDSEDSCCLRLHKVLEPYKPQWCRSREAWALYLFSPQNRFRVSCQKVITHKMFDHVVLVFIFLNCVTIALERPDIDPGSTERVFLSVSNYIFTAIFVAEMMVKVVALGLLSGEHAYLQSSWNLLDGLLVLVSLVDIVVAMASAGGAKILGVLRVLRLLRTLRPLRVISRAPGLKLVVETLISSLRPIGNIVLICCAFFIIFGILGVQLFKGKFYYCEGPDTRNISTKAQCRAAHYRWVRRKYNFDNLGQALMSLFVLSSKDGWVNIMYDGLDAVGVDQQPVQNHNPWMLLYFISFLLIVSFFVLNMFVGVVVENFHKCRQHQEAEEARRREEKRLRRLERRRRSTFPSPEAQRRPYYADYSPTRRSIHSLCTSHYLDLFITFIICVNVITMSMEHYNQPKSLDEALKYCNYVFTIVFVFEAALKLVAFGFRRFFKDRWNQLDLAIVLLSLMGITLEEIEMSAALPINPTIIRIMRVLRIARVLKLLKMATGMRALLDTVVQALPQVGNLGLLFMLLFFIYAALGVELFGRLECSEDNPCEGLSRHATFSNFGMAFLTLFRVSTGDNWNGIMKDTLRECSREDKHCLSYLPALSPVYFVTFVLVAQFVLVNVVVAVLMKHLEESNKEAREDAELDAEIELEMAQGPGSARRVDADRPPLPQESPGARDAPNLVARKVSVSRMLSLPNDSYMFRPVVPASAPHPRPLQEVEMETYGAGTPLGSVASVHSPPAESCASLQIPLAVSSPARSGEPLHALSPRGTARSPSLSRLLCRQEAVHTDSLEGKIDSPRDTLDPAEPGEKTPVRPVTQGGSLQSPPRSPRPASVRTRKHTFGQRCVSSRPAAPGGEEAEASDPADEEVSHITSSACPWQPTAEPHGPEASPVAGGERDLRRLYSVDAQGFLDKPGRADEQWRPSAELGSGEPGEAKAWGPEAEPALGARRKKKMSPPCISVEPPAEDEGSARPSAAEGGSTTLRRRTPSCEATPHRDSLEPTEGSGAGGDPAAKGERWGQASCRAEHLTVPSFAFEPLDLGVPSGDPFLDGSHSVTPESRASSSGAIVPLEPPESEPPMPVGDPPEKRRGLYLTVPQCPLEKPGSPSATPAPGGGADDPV

On to `O=C(NC[C@H]1CC[C@H](NCc2cccc(F)c2O)CC1)c1cc(C(F)(F)F)cc(C(F)(F)F)c1` [Compound 31, N-((trans-4-(3-fluoro-2-hydroxybenzylamino)cyclohexyl)methyl)-3,5-bis(trifluoromethyl)benzamide], for which the IC50 (commonly the concentration needed to halve the response being measured) in assay [1] is 2470 nM; in assay [2], at most 300 nM.
Taken in the same sequence, the figures for `CC1(C)CCCN1C(=O)CN[C@H]1CC[C@H](CNC(=O)c2cc(F)cc(Cl)c2)CC1` [Compound 204, 3-chloro-N-(((1r,4r)-4-(2-(2,2-dimethylpyrrolidin-1-yl)-2-oxoethylamino)cyclohexyl)methyl)-5-fluorobenzamide] were 650 nM and 1580 nM.
Taken in the same sequence, the figures for `COC1CCC(N(C)C(=O)CN[C@H]2CC[C@@H](CNC(=O)c3cc(C(F)(F)F)cc(C(F)(F)F)c3)CC2)CC1` (stereo partly drawn) [Compound 50, N-((cis-4-(2-((4-methoxycyclohexyl)(methyl)amino)-2-oxoethylamino)cyclohexyl)methyl)-3,5-bis(trifluoromethyl)benzamide] were 2470 nM and 4280 nM.
Turning to `Cc1ccc(-c2csc(NC(=O)C[C@H]3CC[C@@H](NCC(O)(C(F)(F)F)C(F)(F)F)CC3)n2)cc1` [Compound 152, N-(4-p-tolylthiazol-2-yl)-2-(cis-4-(3,3,3-trifluoro-2-hydroxy-2-(trifluoromethyl)propylamino)cyclohexyl)acetamide], the half-maximal inhibitory concentration (IC50) in assay [1] was at least 10000 nM; in assay [2] it was at most 300 nM.
With `CC(C)(C)C(O)CN[C@H]1CC[C@@H](CC(=O)Nc2cc(C(F)(F)F)cc(C(F)(F)F)c2)CC1` (stereo partly drawn) [Compound 150, N-(3,5-bis(trifluoromethyl)phenyl)-2-(cis-4-(2-hydroxy-3,3-dimethylbutylamino)cyclohexyl)acetamide], the values for the IC50 in assay [1] and in assay [2] were 524 nM and at most 300 nM, respectively.
The matching figures for `O=C(NC[C@H]1CC[C@H](NCc2c(O)cccc2F)CC1)c1cc(C(F)(F)F)cc(C(F)(F)F)c1` [Compound 32, N-((trans-4-(2-fluoro-6-hydroxybenzylamino)cyclohexyl)methyl)-3,5-bis(trifluoromethyl)benzamide]: 3450 nM and 330 nM.
Taken in the same sequence, the figures for `CC(C)(C)NC(=O)CN[C@H]1CC[C@H](CNC(=O)c2cc(C(F)(F)F)cc(C(F)(F)F)c2)CC1` [Compound 55, N-((trans-4-(2-(tert-butylamino)-2-oxoethylamino)cyclohexyl)methyl)-3,5-bis(trifluoromethyl)benzamide] were 370 nM and at most 300 nM.
On to `COc1ccc(CN[C@H]2CC[C@H](CNC(=O)c3cc(C(F)(F)F)cc(C(F)(F)F)c3)CC2)c(OC)c1` [Compound 35, N-((trans-4-(2,4-dimethoxybenzylamino)cyclohexyl)methyl)-3,5-bis(trifluoromethyl)benzamide], for which the IC50 in assay [1] was determined as 770 nM; in assay [2], 390 nM.
The matching figures for `CC(C)(C)C(O)CN[C@H]1CC[C@H](CNC(=O)c2cc(C(F)(F)F)cc(C(F)(F)F)c2)CC1` (stereo partly drawn) [Compound 3, N-((trans-4-(2-hydroxy-3,3-dimethylbutylamino)cyclohexyl)methyl)-3,5-bis(trifluoromethyl)benzamide]: 1020 nM and 470 nM.
Taken in the same sequence, the figures for `CC(C)(C)NC(=O)CN[C@H]1CC[C@@H](CNC(=O)c2cccc(OC(F)(F)F)c2)CC1` [Compound 185, N-(((1s,4s)-4-(2-(tert-butylamino)-2-oxoethylamino)cyclohexyl)methyl)-3-(trifluoromethoxy)benzamide] were 330 nM and 790 nM.
As for `O=C(NC[C@H]1CC[C@@H](NCc2cccnc2F)CC1)c1cc(C(F)(F)F)cc(C(F)(F)F)c1` [Compound 8, N-((cis-4-((2-fluoropyridin-3-yl)methylamino)cyclohexyl)methyl)-3,5-bis(trifluoromethyl)benzamide], the IC50 in assay [1] stood at 4840 nM; in assay [2], 3350 nM.
The matching figures for `O=C(CNC[C@H]1CC[C@H](NC(=O)c2cc(C(F)(F)F)cc(C(F)(F)F)c2)CC1)NCC(F)(F)F` [Compound 82, N-(trans-4-((2-oxo-2-(2,2,2-trifluoroethylamino)ethylamino)methyl)cyclohexyl)-3,5-bis(trifluoromethyl)benzamide]: 2090 nM and 2540 nM.
The matching figures for `O=C(CNC[C@H]1CC[C@H](NC(=O)c2cc(C(F)(F)F)cc(C(F)(F)F)c2)CC1)Nc1ccccn1` [Compound 96, N-(trans-4-((2-oxo-2-(pyridin-2-ylamino)ethylamino)methyl)cyclohexyl)-3,5-bis(trifluoromethyl)benzamide]: 1040 nM and 540 nM.
For the compound `CC(C)(C)NC(=O)CN[C@H]1CC[C@@H](CNC(=O)c2cc(C(F)(F)F)cc(C(F)(F)F)c2)CC1` [Compound 40, N-((cis-4-(2-(tert-butylamino)-2-oxoethylamino)cyclohexyl)methyl)-3,5-bis(trifluoromethyl)benzamide], the results for the IC50 in assay [1] and in assay [2] were 190 nM and at most 300 nM, respectively.
Taken in the same sequence, the figures for `O=C(C[C@H]1CC[C@H](NC(=O)[C@@H]2CCCN2)CC1)Nc1cc(C(F)(F)F)cc(C(F)(F)F)c1` [Compound 119, (S)-N-(trans-4-(2-(3,5-bis(trifluoromethyl)phenylamino)-2-oxoethyl)cyclohexyl)pyrrolidine-2-carboxamide] were 1530 nM and 880 nM.
With `CC(C)(C)NC(=O)CN[C@H]1CC[C@@H](CNC(=O)c2cc(Cl)cc(Cl)c2)CC1` [Compound 187, N-(((1s,4s)-4-(2-(tert-butylamino)-2-oxoethylamino)cyclohexyl)methyl)-3,5-dichlorobenzamide], the IC50 in assay [1] was 60 nM; in assay [2] it was at most 300 nM.
Taken in the same sequence, the figures for `O=C(C[C@H]1CC[C@@H](NC(=O)[C@H]2CCCN2)CC1)Nc1cc(C(F)(F)F)cc(C(F)(F)F)c1` [Compound 146, (R)-N-(cis-4-(2-(3,5-bis(trifluoromethyl)phenylamino)-2-oxoethyl)cyclohexyl)pyrrolidine-2-carboxamide] were 7870 nM and 2790 nM.
Taken in the same sequence, the figures for `CC(C)CNC(=O)CNC[C@H]1CC[C@H](NC(=O)c2cc(C(F)(F)F)cc(C(F)(F)F)c2)CC1` [Compound 93, N-(trans-4-((2-(isobutylamino)-2-oxoethylamino)methyl)cyclohexyl)-3,5-bis(trifluoromethyl)benzamide] were 1710 nM and 1380 nM.
On to `O=C(C[C@H]1CC[C@H](NC(=O)[C@@H]2C[C@@H](c3ccccc3)CN2)CC1)Nc1cc(C(F)(F)F)cc(C(F)(F)F)c1` [Compound 123, (2S,4S)-N-(trans-4-(2-(3,5-bis(trifluoromethyl)phenylamino)-2-oxoethyl)cyclohexyl)-4-phenylpyrrolidine-2-carboxamide], for which the IC50 is 2950 nM in assay [1] and at most 300 nM in assay [2].
Take `Cc1cc(F)cc(C(=O)NC[C@H]2CC[C@@H](NCC(=O)NC(C)(C)C)CC2)c1` [Compound 188, N-(((1s,4s)-4-(2-(tert-butylamino)-2-oxoethylamino)cyclohexyl)methyl)-3-fluoro-5-methylbenzamide]: the figures for the half-maximal inhibitory concentration (IC50) in assay [1] and in assay [2] were 1230 nM and 4280 nM, respectively.
Consider `CC(C)(C)NC(=O)CN[C@H]1CC[C@@H](CNC(=O)c2cccc(C(F)(F)F)c2)CC1` [Compound 182, N-(((1s,4s)-4-(2-(tert-butylamino)-2-oxoethylamino)cyclohexyl)methyl)-3-(trifluoromethyl)benzamide], for which the IC50 turned out to be 3420 nM in assay [1] and 2370 nM in assay [2].
The matching figures for `CC(C)(C)C(O)CN[C@H]1CC[C@@H](CNC(=O)c2cc(C(F)(F)F)cc(C(F)(F)F)c2)CC1` (stereo partly drawn) [Compound 1]: 580 nM and 390 nM.
As to `CCN(CC)C(=O)CN[C@H]1CC[C@H](CNC(=O)c2cc(C(F)(F)F)cc(C(F)(F)F)c2)CC1` [Compound 56, N-((trans-4-(2-(diethylamino)-2-oxoethylamino)cyclohexyl)methyl)-3,5-bis(trifluoromethyl)benzamide], the 50% inhibitory concentration (IC50) worked out at 590 nM in assay [1] and 440 nM in assay [2].
The matching figures for `COc1ccccc1CN[C@H]1CC[C@@H](CNC(=O)c2cc(C(F)(F)F)cc(C(F)(F)F)c2)CC1` [Compound 10, N-((cis-4-(2-methoxybenzylamino)cyclohexyl)methyl)-3,5-bis(trifluoromethyl)benzamide]: 320 nM and 470 nM.
The matching figures for `COc1cc(F)cc(C(=O)NC[C@H]2CC[C@@H](NCC(=O)NC3(C)CCC3)CC2)c1` [Compound 197, 3-fluoro-5-methoxy-N-(((1s,4s)-4-(2-(1-methylcyclobutylamino)-2-oxoethylamino)cyclohexyl)methyl)benzamide]: 260 nM and 1940 nM.
Taken in the same sequence, the figures for `O=C(NC[C@H]1CC[C@@H](NC(=O)[C@@H]2C[C@@H](c3ccccc3)CN2)CC1)c1cc(C(F)(F)F)cc(C(F)(F)F)c1` [Compound 125, (2S,4S)-N-(cis-4-((3,5-bis(trifluoromethyl)benzamido)methyl)cyclohexyl)-4-phenylpyrrolidine-2-carboxamide] were 2430 nM and 940 nM.
For the compound `CC1(NC(=O)CN[C@H]2CC[C@H](CNC(=O)c3cc(F)cc(Cl)c3)CC2)CCC1` [Compound 202, 3-chloro-5-fluoro-N-(((1r,4r)-4-(2-(1-methylcyclobutylamino)-2-oxoethylamino)cyclohexyl)methyl)benzamide], the half-inhibitory concentration (IC50) in assay [1] worked out at 310 nM; in assay [2], 970 nM.
